# Assay results from patent US20260193293A1, “PEPTIDES CAPABLE OF INHIBITING PROTEIN-PROTEIN INTERACTIONS AT GABAB1A SUBUNIT AND USES THEREOF” (UNIVERSITY OF COPENHAGEN, priority 2022, published 2026).
# Where two headings read alike, the source gives them in different places. Non-standard residues stand in square brackets, D forms with d. Residues, ends and D or L forms follow the SMILES beside them. NMeT = CN[C@H](C(=O)O)[C@@H](C)O; NMeE = CN[C@@H](CCC(=O)O)C(=O)O; NMeD = CN[C@@H](CC(=O)O)C(=O)O; Sar = CNCC(=O)O
# Target: Sushi domains (SD1/2) protein
# Assay: Fluorescence polarization (FP) competition assay with AJAP-1probe, calculated Ki
# Format: binding
# Details: read-out: Ki (nM) mean ± SEM
# Procedure, shortened: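 Competition against 25 nM TAMRA-labelled peptide probe binding SD1/2, in PBS pH 7.4 with 1% BSA at rt, read at 530/580 nm. IC50 from sigmoidal dose-response fits, at least triplicate; Ki calculated from IC50 using probe Kd from saturation binding.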
# [1] = Table 11, deep mutational scanning validation variants of AJAP-1WT
# [2] = Table 8, Ala-, D-amino acids and N-methylation scans of AJAP-1WT
Ki [1] [nM],Ki [2] [nM],SMILES,also measured
41 ± 2,,CC[C@H](C)[C@H](NC(=O)[C@H](Cc1ccccc1)NC(=O)[C@H](CCC(=O)O)NC(=O)[C@@H](NC(=O)[C@H](CCC(=O)O)NC(C)=O)[C@@H](C)O)C(=O)N[C@@H](C)C(=O)N[C@@H](Cc1c[nH]c2ccccc12)C(=O)NCC(=O)N1CCC[C@H]1C(=O)N[C@H](C(=O)NCC(=O)N[C@@H](CC(=O)O)C(=O)N[C@@H](CCC(=O)O)C(=O)N1CCC[C@H]1C(N)=O)[C@@H](C)O (Ac-ETEFIAWGPTGDEP-NH2),
37 ± 2,,CC[C@H](C)[C@H](NC(=O)[C@H](Cc1ccccc1)NC(=O)[C@H](CCC(=O)O)NC(=O)[C@@H](NC(=O)[C@H](CCC(=O)O)NC(C)=O)[C@@H](C)O)C(=O)N[C@@H](C)C(=O)N[C@@H](Cc1c[nH]c2ccccc12)C(=O)NCC(=O)N1CCC[C@H]1C(=O)N[C@H](C(=O)NCC(=O)N[C@@H](CC(=O)O)C(=O)N[C@@H](CCC(=O)O)C(=O)N[C@@H](CCC(N)=O)C(N)=O)[C@@H](C)O (Ac-ETEFIAWGPTGDEQ-NH2),
40 ± 2,,CC[C@H](C)[C@H](NC(=O)[C@H](Cc1ccccc1)NC(=O)[C@H](CCC(=O)O)NC(=O)[C@@H](NC(=O)[C@H](CCC(=O)O)NC(C)=O)[C@@H](C)O)C(=O)N[C@@H](C)C(=O)N[C@@H](Cc1c[nH]c2ccccc12)C(=O)NCC(=O)N1CCC[C@H]1C(=O)N[C@H](C(=O)NCC(=O)N[C@@H](CC(=O)O)C(=O)N[C@@H](CCC(=O)O)C(=O)N[C@H](C(N)=O)C(C)C)[C@@H](C)O (Ac-ETEFIAWGPTGDEV-NH2),
54 ± 2,,CC[C@H](C)[C@H](NC(=O)[C@H](Cc1ccccc1)NC(=O)[C@H](CCC(=O)O)NC(=O)[C@@H](NC(=O)[C@H](CCC(=O)O)NC(C)=O)[C@@H](C)O)C(=O)N[C@@H](C)C(=O)N[C@@H](Cc1c[nH]c2ccccc12)C(=O)NCC(=O)N1CCC[C@H]1C(=O)N[C@H](C(=O)NCC(=O)N[C@@H](CC(=O)O)C(=O)N[C@@H](CCC(=O)O)C(=O)N[C@@H](Cc1c[nH]c2ccccc12)C(N)=O)[C@@H](C)O (Ac-ETEFIAWGPTGDEW-NH2),
,29 ± 1,CC[C@H](C)[C@H](NC(=O)[C@H](Cc1ccccc1)NC(=O)[C@H](CCC(=O)O)NC(=O)[C@@H](NC(=O)[C@H](CCC(=O)O)NC(C)=O)[C@@H](C)O)C(=O)N[C@@H](C)C(=O)N[C@@H](Cc1c[nH]c2ccccc12)C(=O)NCC(=O)N1CCC[C@H]1C(=O)N[C@H](C(=O)NCC(=O)N[C@@H](CC(=O)O)C(=O)N[C@@H](CCC(=O)O)C(=O)N(C)[C@@H](CC(=O)O)C(N)=O)[C@@H](C)O (Ac-ETEFIAWGPTGDE[NMeD]-NH2),
41 ± 2,,CC[C@H](C)[C@H](NC(=O)[C@H](Cc1ccccc1)NC(=O)[C@H](CCC(=O)O)NC(=O)[C@@H](NC(=O)[C@H](CCC(=O)O)NC(C)=O)[C@@H](C)O)C(=O)N[C@@H](C)C(=O)N[C@@H](Cc1c[nH]c2ccccc12)C(=O)NCC(=O)N1CCC[C@H]1C(=O)N[C@H](C(=O)NCC(=O)N[C@@H](CC(=O)O)C(=O)N[C@@H](Cc1ccccc1)C(=O)N[C@@H](CC(=O)O)C(N)=O)[C@@H](C)O (Ac-ETEFIAWGPTGDFD-NH2),
34 ± 2,,CC[C@H](C)[C@H](NC(=O)[C@H](Cc1ccccc1)NC(=O)[C@H](CCC(=O)O)NC(=O)[C@@H](NC(=O)[C@H](CCC(=O)O)NC(C)=O)[C@@H](C)O)C(=O)N[C@@H](C)C(=O)N[C@@H](Cc1c[nH]c2ccccc12)C(=O)NCC(=O)N1CCC[C@H]1C(=O)N[C@H](C(=O)NCC(=O)N[C@@H](CC(=O)O)C(=O)N1CCC[C@H]1C(=O)N[C@@H](CC(=O)O)C(N)=O)[C@@H](C)O (Ac-ETEFIAWGPTGDPD-NH2),
54 ± 2,,CC[C@H](C)[C@H](NC(=O)[C@H](Cc1ccccc1)NC(=O)[C@H](CCC(=O)O)NC(=O)[C@@H](NC(=O)[C@H](CCC(=O)O)NC(C)=O)[C@@H](C)O)C(=O)N[C@@H](C)C(=O)N[C@@H](Cc1c[nH]c2ccccc12)C(=O)NCC(=O)N1CCC[C@H]1C(=O)N[C@H](C(=O)NCC(=O)N[C@@H](CC(=O)O)C(=O)N[C@@H](CCCNC(=N)N)C(=O)N[C@@H](CC(=O)O)C(N)=O)[C@@H](C)O (Ac-ETEFIAWGPTGDRD-NH2),
54 ± 1,,CC[C@H](C)[C@H](NC(=O)[C@H](Cc1ccccc1)NC(=O)[C@H](CCC(=O)O)NC(=O)[C@@H](NC(=O)[C@H](CCC(=O)O)NC(C)=O)[C@@H](C)O)C(=O)N[C@@H](C)C(=O)N[C@@H](Cc1c[nH]c2ccccc12)C(=O)NCC(=O)N1CCC[C@H]1C(=O)N[C@H](C(=O)NCC(=O)N[C@@H](CC(=O)O)C(=O)N[C@@H](Cc1c[nH]c2ccccc12)C(=O)N[C@@H](CC(=O)O)C(N)=O)[C@@H](C)O (Ac-ETEFIAWGPTGDWD-NH2),
40 ± 1,,CC[C@H](C)[C@H](NC(=O)[C@H](Cc1ccccc1)NC(=O)[C@H](CCC(=O)O)NC(=O)[C@@H](NC(=O)[C@H](CCC(=O)O)NC(C)=O)[C@@H](C)O)C(=O)N[C@@H](C)C(=O)N[C@@H](Cc1c[nH]c2ccccc12)C(=O)NCC(=O)N1CCC[C@H]1C(=O)N[C@H](C(=O)NCC(=O)N[C@@H](CC(=O)O)C(=O)N[C@@H](Cc1ccc(O)cc1)C(=O)N[C@@H](CC(=O)O)C(N)=O)[C@@H](C)O (Ac-ETEFIAWGPTGDYD-NH2),
,31 ± 1,CC[C@H](C)[C@H](NC(=O)[C@H](Cc1ccccc1)NC(=O)[C@H](CCC(=O)O)NC(=O)[C@@H](NC(=O)[C@H](CCC(=O)O)NC(C)=O)[C@@H](C)O)C(=O)N[C@@H](C)C(=O)N[C@@H](Cc1c[nH]c2ccccc12)C(=O)NCC(=O)N1CCC[C@H]1C(=O)N[C@H](C(=O)NCC(=O)N[C@@H](CC(=O)O)C(=O)N(C)[C@@H](CCC(=O)O)C(=O)N[C@@H](CC(=O)O)C(N)=O)[C@@H](C)O (Ac-ETEFIAWGPTGD[NMeE]D-NH2),
,45 ± 2,CC[C@H](C)[C@H](NC(=O)[C@H](Cc1ccccc1)NC(=O)[C@H](CCC(=O)O)NC(=O)[C@@H](NC(=O)[C@H](CCC(=O)O)NC(C)=O)[C@@H](C)O)C(=O)N[C@@H](C)C(=O)N[C@@H](Cc1c[nH]c2ccccc12)C(=O)NCC(=O)N1CCC[C@H]1C(=O)N[C@H](C(=O)NCC(=O)N(C)[C@@H](CC(=O)O)C(=O)N[C@@H](CCC(=O)O)C(=O)N[C@@H](CC(=O)O)C(N)=O)[C@@H](C)O (Ac-ETEFIAWGPTG[NMeD]ED-NH2),
,132 ± 5,CC[C@H](C)[C@H](NC(=O)[C@H](Cc1ccccc1)NC(=O)[C@H](CCC(=O)O)NC(=O)[C@@H](NC(=O)[C@H](CCC(=O)O)NC(C)=O)[C@@H](C)O)C(=O)N[C@@H](C)C(=O)N[C@@H](Cc1c[nH]c2ccccc12)C(=O)NCC(=O)N1CCC[C@H]1C(=O)N[C@H](C(=O)N(C)CC(=O)N[C@@H](CC(=O)O)C(=O)N[C@@H](CCC(=O)O)C(=O)N[C@@H](CC(=O)O)C(N)=O)[C@@H](C)O (Ac-ETEFIAWGPT[Sar]DED-NH2),
,77 ± 3,CC[C@H](C)[C@H](NC(=O)[C@H](Cc1ccccc1)NC(=O)[C@H](CCC(=O)O)NC(=O)[C@@H](NC(=O)[C@H](CCC(=O)O)NC(C)=O)[C@@H](C)O)C(=O)N[C@@H](C)C(=O)N[C@@H](Cc1c[nH]c2ccccc12)C(=O)NCC(=O)N1CCC[C@H]1C(=O)N(C)[C@H](C(=O)NCC(=O)N[C@@H](CC(=O)O)C(=O)N[C@@H](CCC(=O)O)C(=O)N[C@@H](CC(=O)O)C(N)=O)[C@@H](C)O (Ac-ETEFIAWGP[NMeT]GDED-NH2),
,,CC[C@H](C)[C@H](NC(=O)[C@H](Cc1ccccc1)NC(=O)[C@H](CCC(=O)O)NC(=O)[C@@H](NC(=O)[C@H](CCC(=O)O)NC(C)=O)[C@@H](C)O)C(=O)N[C@@H](C)C(=O)N[C@@H](Cc1c[nH]c2ccccc12)C(=O)N[C@@H](Cc1ccc(O)cc1)C(=O)NCC(=O)N1CCC[C@H]1C(=O)N[C@@H](C)C(=O)N[C@@H](CC(=O)O)C(=O)N[C@H](C(=O)N[C@@H](CC(=O)O)C(N)=O)[C@@H](C)O (Ac-ETEFIAWYGPADTD-NH2),"Ki (Table 13, peptides for affinity maturation): 182 ± 2 nM"
